# Test results: US6887897B2, “Calcium glutarate supplement and phosphorus binder” (Mission Pharmacal Company, priority 2001, dated 2005)
# Key:
# [1] = aqueous solubility of calcium salts; format: physicochemical
# Procedure: (§1) The following in-vitro tests were conducted to test the solubility and ability of calcium glutarate to bind with phosphates. The tests included analysis for monobasic, Ca(Na2PO4)2, dibasic, CaNaPO4, and tribasic, Ca(PO4)2 binding. The three examples are as follows.
# [2] = in-vitro test of ability of calcium glutarate to bind with phosphates (free calcium in filtrate by atomic absorption spectrometry); settings: filtered through 0.45-μm nylon filter
# Procedure: as §1
# (§2) An aqueous solution of calcium glutarate was mixed with a twice over molar solution of sodium phosphate. A suspension formed which was filtered by a vacuum through a 0.45-μm nylon filter. The resulting filtrate was assayed for free calcium by atomic absorption spectrometry. The percent of calcium recovered in solution was 0.1%.
# as §2, with “mixed with an equi-molar solution of” for “mixed with a twice over molar solution of”, “filtered by vacuum through” for “filtered by a vacuum through”
# An aqueous solution of calcium glutarate was mixed with a two-thirds molar solution of sodium phosphate. A suspension formed which was filtered by vacuum through a 0.45-μm nylon filter. The resulting filtrate was assayed for free calcium by atomic absorption spectrometry. The percent of calcium, recovered in solution was 4.5%.
compound,measurement,setting,value
O=C([O-])CCCC(=O)[O-].[Ca+2] [calcium glutarate],solubility,[1],about 5.2 gm per 100 cc
same,percent of calcium recovered in solution,[2]; mixed with a twice over molar solution of sodium phosphate,0.1%
same,percent of calcium recovered in solution,[2]; mixed with a two-thirds molar solution of sodium phosphate,4.5%
same,percent of calcium recovered in solution,[2]; mixed with an equi-molar solution of sodium phosphate,0.1%
